Measured values as given in BindingDB's records for doi:10.1111/j.1476-5381.1996.tb15304.x (Smithkline Beecham Pharmaceuticals, 1996).
pKi: −log10 of the molar value.

Key:
[1] = molecular target: T1, Solute carrier family 22 member 1 (Rattus norvegicus, UniProt Q63089)
T1 sequence (Q63089 whole entry): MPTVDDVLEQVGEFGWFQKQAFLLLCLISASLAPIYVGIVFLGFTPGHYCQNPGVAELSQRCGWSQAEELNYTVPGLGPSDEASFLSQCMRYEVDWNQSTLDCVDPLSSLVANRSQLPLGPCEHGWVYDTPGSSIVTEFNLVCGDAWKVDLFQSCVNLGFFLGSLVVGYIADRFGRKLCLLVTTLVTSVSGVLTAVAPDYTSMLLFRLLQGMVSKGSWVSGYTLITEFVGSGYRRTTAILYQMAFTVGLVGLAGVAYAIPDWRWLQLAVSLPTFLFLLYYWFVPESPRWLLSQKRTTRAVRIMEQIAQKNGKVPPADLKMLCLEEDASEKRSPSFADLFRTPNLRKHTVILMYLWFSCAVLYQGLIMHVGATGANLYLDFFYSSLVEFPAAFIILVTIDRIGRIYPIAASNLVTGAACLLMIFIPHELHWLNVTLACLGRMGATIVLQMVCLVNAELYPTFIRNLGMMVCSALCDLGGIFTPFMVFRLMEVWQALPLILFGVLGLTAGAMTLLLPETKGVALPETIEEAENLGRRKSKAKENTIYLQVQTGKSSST

[2] = molecular target: T2, 5-hydroxytryptamine receptor 2C (Rattus norvegicus, UniProt P08909)
T2 sequence (P08909 whole entry): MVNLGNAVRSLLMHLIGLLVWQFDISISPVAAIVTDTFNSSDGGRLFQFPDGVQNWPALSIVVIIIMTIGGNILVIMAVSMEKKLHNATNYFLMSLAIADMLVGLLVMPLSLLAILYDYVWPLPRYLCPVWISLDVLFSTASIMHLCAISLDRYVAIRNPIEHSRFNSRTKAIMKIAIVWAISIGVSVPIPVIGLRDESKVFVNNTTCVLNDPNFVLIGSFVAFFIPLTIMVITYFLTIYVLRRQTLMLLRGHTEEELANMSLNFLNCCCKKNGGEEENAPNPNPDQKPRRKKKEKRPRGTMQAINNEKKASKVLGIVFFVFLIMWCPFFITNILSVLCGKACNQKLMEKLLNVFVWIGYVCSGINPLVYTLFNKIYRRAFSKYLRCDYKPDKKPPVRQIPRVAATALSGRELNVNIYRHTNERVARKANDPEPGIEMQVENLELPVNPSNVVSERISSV

[3] = molecular target: 5-hydroxytryptamine receptor 7 (Homo sapiens, UniProt P34969)
Sequence of 5-hydroxytryptamine receptor 7 (Homo sapiens, UniProt P34969) (P34969 whole entry): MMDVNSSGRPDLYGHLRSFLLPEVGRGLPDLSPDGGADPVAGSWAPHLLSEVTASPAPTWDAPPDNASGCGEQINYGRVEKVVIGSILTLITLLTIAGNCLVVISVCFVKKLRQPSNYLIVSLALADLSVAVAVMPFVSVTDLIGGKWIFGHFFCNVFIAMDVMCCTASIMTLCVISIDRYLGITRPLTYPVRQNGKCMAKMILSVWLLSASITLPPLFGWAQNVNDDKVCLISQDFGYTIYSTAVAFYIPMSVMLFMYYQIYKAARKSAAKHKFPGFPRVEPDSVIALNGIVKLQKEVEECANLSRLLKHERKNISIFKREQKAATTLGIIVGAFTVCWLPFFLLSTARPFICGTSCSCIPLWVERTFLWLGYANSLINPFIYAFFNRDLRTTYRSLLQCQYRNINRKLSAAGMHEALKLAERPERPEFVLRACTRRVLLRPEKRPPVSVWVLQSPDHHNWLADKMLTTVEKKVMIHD

[4] = molecular target: Beta-1 adrenergic receptor (Homo sapiens, UniProt P08588)
Sequence of Beta-1 adrenergic receptor (P08588 whole entry): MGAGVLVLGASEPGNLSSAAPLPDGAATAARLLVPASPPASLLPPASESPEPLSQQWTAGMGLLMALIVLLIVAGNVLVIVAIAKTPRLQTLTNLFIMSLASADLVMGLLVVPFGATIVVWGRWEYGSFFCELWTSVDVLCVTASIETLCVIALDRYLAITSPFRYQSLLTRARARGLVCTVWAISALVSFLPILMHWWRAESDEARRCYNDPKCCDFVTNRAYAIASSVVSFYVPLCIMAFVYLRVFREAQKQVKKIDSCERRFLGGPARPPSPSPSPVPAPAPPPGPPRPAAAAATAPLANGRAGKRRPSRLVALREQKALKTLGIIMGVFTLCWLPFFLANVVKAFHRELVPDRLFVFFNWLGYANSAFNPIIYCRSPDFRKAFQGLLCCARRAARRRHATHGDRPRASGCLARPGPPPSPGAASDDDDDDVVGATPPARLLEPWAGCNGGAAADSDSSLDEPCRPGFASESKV

Histamine H2 receptor = Histamine H2 receptor (Mus musculus, UniProt P97292)
Sequence of Histamine H2 receptor (P97292 whole entry): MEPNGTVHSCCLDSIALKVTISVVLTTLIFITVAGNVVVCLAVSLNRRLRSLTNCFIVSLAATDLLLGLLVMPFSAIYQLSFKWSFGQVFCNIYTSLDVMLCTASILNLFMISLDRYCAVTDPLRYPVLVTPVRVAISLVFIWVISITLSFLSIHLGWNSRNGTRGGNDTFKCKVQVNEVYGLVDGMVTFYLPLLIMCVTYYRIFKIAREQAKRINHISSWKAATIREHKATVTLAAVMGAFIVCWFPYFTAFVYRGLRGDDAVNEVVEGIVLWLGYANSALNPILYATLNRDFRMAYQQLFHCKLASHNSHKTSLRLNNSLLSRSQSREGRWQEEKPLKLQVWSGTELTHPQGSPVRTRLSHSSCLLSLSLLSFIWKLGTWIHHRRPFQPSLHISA

[5] = molecular target: 5-hydroxytryptamine receptor 1B (Homo sapiens, UniProt P28222)
Sequence of 5-hydroxytryptamine receptor 1B (P28222 whole entry): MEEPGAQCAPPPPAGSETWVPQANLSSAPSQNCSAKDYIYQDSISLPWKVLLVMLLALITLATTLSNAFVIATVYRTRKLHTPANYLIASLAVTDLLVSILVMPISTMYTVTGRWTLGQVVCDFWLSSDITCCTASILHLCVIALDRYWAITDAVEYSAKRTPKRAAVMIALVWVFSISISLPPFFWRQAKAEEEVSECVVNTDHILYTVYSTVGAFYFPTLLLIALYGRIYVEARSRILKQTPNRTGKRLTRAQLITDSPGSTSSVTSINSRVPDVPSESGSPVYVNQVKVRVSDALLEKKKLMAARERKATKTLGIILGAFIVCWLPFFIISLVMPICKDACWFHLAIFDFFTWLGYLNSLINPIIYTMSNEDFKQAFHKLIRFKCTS

[6] = molecular target: 5-hydroxytryptamine receptor 7 (Rattus norvegicus, UniProt P32305)
Sequence of 5-hydroxytryptamine receptor 7 (Rattus norvegicus, UniProt P32305) (P32305 whole entry): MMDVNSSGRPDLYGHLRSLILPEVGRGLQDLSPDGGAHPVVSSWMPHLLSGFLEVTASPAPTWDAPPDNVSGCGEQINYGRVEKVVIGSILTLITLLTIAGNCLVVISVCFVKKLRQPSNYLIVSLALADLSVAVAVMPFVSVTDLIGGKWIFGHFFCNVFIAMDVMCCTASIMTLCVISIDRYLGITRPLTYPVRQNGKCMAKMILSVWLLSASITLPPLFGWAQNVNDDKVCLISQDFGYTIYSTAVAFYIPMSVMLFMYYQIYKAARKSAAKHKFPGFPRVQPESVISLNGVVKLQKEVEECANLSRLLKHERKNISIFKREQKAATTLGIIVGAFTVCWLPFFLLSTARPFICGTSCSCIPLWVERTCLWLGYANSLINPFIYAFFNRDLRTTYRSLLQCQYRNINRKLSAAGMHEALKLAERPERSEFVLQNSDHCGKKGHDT

[7] = molecular target: T3, Adrenergic alpha2 receptor (Mesocricetus auratus, UniProt Q60533)
T3 sequence (Q60533 whole entry): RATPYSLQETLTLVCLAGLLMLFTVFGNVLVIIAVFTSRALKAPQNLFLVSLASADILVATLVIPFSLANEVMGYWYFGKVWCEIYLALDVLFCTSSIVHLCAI

[8] = molecular target: 5-hydroxytryptamine receptor 2A (Rattus norvegicus, UniProt P14842)
Sequence of 5-hydroxytryptamine receptor 2A (P14842 whole entry): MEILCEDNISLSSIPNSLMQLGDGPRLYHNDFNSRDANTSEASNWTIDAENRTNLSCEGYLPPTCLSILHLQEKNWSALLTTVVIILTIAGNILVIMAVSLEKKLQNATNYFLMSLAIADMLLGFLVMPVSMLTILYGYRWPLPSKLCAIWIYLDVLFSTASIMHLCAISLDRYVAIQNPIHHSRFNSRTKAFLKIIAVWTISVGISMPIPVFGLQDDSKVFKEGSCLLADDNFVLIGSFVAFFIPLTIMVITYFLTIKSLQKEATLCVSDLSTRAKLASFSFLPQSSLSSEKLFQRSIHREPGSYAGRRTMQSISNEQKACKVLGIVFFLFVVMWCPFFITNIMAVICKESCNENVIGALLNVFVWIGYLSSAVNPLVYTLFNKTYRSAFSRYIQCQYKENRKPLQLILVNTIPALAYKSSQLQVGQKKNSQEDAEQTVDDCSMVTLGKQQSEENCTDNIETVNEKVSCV

D(4) dopamine receptor = molecular target: T4, D(4) dopamine receptor (Homo sapiens, UniProt P21917)
T4 sequence (P21917 whole entry): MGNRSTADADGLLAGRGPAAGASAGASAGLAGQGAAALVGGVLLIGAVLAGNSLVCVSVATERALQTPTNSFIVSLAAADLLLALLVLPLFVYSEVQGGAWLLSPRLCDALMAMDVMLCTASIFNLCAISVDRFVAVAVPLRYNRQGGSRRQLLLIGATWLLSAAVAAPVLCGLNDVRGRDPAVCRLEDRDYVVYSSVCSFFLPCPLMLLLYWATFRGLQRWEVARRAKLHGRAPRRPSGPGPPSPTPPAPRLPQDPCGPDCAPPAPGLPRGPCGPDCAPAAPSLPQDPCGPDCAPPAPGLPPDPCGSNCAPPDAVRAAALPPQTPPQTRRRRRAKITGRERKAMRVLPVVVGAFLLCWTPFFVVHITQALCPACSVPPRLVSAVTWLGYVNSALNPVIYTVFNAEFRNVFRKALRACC

D(2) dopamine receptor = D(2) dopamine receptor (Homo sapiens, UniProt P14416)
Sequence of D(2) dopamine receptor (P14416 whole entry): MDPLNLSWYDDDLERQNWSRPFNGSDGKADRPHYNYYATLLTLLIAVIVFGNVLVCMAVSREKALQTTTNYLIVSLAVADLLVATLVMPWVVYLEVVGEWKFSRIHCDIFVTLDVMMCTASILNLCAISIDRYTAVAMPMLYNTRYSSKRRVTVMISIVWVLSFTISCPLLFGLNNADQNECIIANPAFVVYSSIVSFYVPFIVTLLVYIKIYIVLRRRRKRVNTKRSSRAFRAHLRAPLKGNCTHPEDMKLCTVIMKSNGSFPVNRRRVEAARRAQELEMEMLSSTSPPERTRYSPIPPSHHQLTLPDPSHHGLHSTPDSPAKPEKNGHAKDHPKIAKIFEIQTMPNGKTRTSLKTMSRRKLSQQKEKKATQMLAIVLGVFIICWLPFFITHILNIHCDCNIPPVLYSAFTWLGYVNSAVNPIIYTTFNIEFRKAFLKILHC

[9] = molecular target: T5, 5-hydroxytryptamine receptor 3A (Rattus norvegicus, UniProt P35563)
T5 sequence (P35563 whole entry): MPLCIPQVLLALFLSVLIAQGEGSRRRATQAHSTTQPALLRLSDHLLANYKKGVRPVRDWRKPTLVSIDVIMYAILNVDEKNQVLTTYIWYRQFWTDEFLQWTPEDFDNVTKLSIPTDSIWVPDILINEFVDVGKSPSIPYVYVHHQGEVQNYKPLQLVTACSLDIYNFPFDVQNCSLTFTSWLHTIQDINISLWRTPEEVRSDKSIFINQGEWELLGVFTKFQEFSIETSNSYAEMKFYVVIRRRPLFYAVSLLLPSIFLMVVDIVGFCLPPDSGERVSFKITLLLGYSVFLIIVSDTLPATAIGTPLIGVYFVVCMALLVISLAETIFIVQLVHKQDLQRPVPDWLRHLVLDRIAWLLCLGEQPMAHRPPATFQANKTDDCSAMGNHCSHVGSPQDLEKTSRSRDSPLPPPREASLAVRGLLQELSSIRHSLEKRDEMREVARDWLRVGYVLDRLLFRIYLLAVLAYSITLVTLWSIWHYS

[10] = molecular target: 5-hydroxytryptamine receptor 1E (Homo sapiens, UniProt P28566)
Sequence of 5-hydroxytryptamine receptor 1E (P28566 whole entry): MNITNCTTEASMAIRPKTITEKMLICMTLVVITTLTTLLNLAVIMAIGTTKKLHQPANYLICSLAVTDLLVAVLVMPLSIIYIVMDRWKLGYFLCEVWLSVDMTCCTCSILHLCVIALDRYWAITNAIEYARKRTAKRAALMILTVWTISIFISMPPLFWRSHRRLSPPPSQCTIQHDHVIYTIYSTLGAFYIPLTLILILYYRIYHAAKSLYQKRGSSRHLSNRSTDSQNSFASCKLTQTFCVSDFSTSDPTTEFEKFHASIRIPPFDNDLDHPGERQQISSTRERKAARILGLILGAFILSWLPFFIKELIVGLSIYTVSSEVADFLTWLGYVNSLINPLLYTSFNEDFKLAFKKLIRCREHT

[11] = molecular target: 5-hydroxytryptamine receptor 4 (Rattus norvegicus, UniProt Q62758)
Sequence of 5-hydroxytryptamine receptor 4 (Q62758 whole entry): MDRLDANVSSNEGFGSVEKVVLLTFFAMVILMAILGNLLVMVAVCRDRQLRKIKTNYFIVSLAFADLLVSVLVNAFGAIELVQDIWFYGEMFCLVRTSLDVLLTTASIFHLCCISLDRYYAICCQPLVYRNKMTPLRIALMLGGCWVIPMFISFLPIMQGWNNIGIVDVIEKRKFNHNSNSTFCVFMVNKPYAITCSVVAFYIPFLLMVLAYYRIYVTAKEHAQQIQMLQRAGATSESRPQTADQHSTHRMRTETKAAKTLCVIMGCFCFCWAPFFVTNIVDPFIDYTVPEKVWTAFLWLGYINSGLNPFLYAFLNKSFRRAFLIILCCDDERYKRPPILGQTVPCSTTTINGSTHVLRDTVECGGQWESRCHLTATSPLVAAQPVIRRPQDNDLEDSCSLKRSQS

[12] = molecular target: T6, 5-hydroxytryptamine receptor 1F (Homo sapiens, UniProt P30939)
T6 sequence (P30939 whole entry): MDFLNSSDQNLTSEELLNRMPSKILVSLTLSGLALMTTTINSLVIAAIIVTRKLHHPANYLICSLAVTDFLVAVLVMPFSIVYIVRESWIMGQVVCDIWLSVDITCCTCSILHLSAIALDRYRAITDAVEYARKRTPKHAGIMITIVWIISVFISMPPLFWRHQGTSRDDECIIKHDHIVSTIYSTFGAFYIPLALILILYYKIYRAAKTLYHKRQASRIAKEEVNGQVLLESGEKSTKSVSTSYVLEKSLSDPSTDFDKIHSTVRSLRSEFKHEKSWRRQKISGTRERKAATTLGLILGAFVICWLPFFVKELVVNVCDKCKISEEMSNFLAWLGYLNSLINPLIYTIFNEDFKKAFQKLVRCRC

[13] = molecular target: T7, 5-hydroxytryptamine receptor 2C (Homo sapiens, UniProt P28335)
T7 sequence (P28335 whole entry): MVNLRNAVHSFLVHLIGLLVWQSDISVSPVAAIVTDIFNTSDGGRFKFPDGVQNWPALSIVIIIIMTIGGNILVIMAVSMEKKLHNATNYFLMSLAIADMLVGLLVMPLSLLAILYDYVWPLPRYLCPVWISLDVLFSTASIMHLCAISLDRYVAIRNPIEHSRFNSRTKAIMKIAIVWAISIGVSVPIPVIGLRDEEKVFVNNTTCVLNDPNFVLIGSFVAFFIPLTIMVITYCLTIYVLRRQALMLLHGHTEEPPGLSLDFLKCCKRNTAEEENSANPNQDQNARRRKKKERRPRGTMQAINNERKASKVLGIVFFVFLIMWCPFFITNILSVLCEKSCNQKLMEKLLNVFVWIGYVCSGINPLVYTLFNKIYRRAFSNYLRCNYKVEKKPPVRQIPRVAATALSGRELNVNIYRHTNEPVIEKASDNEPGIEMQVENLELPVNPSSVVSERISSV

[14] = molecular target: Beta-2 adrenergic receptor (Mus musculus, UniProt P18762)
Sequence of Beta-2 adrenergic receptor (P18762 whole entry): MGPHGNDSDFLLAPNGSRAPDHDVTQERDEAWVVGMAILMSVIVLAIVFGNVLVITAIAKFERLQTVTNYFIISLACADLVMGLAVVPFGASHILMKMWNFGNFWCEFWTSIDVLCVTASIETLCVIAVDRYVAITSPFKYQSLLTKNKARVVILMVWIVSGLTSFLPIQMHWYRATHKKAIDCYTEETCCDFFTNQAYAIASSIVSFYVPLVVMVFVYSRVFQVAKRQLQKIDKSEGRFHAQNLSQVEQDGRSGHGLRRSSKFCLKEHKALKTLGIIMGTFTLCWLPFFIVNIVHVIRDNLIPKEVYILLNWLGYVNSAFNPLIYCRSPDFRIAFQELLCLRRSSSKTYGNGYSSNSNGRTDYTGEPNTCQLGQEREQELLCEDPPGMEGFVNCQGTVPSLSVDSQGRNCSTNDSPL

[15] = molecular target: 5-hydroxytryptamine receptor 1D (Homo sapiens, UniProt P28221)
D(1A) dopamine receptor = D(1A) dopamine receptor (Homo sapiens, UniProt P21728)
Sequence of D(1A) dopamine receptor (P21728 whole entry): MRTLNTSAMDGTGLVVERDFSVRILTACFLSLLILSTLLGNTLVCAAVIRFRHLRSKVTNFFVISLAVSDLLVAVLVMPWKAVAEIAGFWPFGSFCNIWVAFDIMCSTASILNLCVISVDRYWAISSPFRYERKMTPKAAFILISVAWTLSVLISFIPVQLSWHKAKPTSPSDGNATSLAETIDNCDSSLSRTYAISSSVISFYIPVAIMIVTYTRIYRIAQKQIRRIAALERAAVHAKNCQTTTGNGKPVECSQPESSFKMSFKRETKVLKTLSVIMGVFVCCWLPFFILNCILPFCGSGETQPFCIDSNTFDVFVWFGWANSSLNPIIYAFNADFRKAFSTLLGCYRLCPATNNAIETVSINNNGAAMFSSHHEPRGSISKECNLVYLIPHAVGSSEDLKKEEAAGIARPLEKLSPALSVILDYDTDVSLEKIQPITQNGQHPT

For `CC(N)Cc1c[nH]c2ccc(OCc3cccs3)cc12` (centres undefined) [NSC_5311036], the pKi [1] was < 5.00, the pKi [2] was 6.90 and the pKi [3] was 5.50. The pKi [4] was < 5.00, the pKi (Histamine H2 receptor) was < 5.00 and the pKi [5] was 6.90. For the same compound, the pKi [6] was 6.00, the pKi [7] was < 5.00 and the pKi [8] was 6.60. For the same compound, the pKi (D(4) dopamine receptor) was < 5.00, the pKi (D(2) dopamine receptor) was < 5.00 and the pKi [9] was 6.50. The pKi [10] was 5.50, the pKi [11] was < 5.00 and the pKi [12] was 5.10. The pKi [13] was 6.30, the pKi [14] was < 5.00 and the pKi [15] was 6.20. The pKi (D(1A) dopamine receptor) was < 5.00.
